{"source": "patent US7022319B1", "about": "“Vectors carrying therapeutic genes encoding antimicrobial peptides for gene therapy” (GSF - Forschungszentrum fuer Umwelt und Gesundheit GmbH, priority 1995, dated 2006)", "key": {"HIV": {"tested_on": "HIV", "conditions": "purified peptide given to cells in culture; cited from earlier work"}, "cancer": {"tested_on": "cancer", "conditions": "purified peptide given to cells in culture; cited from earlier work"}, "bacteria": {"tested_on": "bacteria", "conditions": "cited from earlier work"}, "mammalian cells": {"tested_on": "mammalian cells", "conditions": "cited from earlier work"}, "[1]": {"tested_on": "variety of tumour cell lines", "conditions": "cited from earlier work"}, "[2]": {"tested_on": "human bladder carcinoma derived cell line, EJ", "assay": "Tumorigenicity in nude mice of EJ cell clones carrying melittin or cecropin expression constructs", "format": "in vivo", "conditions": "EJ cell clones carrying the gene, injected into nude mice; FIGS. 9A-9G and 10A-10F", "source_text": "EJ cells were transfected with p125.CercA and the clones expressing neomycin resistance were isolated. Six clones were isolated: Cecropin A1.4, Cecropin A1.7, Cecropin A1.8, Cecropin A10.3, Cecropin A10.4, and Cecropin A10.8.\nSimilarly Ej cells were transfected with pBAGpMel and pBagppMel and the clones expressing neomycin resistance were isolated. Three clones containing the premelittin gene were isolated: Pre Melittin 1, Pre Melittin 4, and Pre Melittin 6. Two clones containing prepromelittin were isolated: Pre Pro Melittin 1, and Pre Pro Melittin 5.\nThe human bladder carcinoma derived cell line, EJ, gives tumours upon injection into immuno compromised nude mice which grow progressively larger (FIGS. 9A–9G). The stable clones of Ej cells carrying the melittin or cecropin expression constructs obtained as described above were tested for their tumorigenicity in nude ice."}, "HIV LTR": {"tested_on": "HIV LTR", "assay": "HIV LTR-luciferase reporter (HIV-luc) supertransfected into EJ derived cell clones, with or without Tat", "format": "cell-based", "conditions": "in the presence of Tat, FIGS. 11 and 12", "source_text": "EJ derived cell clones carrying the melittin or cecropin expression vector or the parental. BAG vector, not carrying a therapeutic gene, were supertransfected with an indicator construct carrying the HIV LTR (and thus the HIV promoter) linked to a firefly luciferase reporter gene (HIV-luc) in the absence or presence of a separate construct expressing Tat. In the absence of Tat there was little luciferase activity detectable from the HIV-luc construct in all cell clones as expected since the HIV promoter requires Tat for its activity. […] Thus the production of HIV from infected cells will be inhibited by the antimicrobial peptide gene carrying therapeutic-retroviral vector. This effect is expected to lead to a lack of virus production from HIV infected cells."}, "MMTV LTR": {"tested_on": "MMTV LTR", "assay": "MMTV LTR-luciferase reporter supertransfected into cells carrying PreProCecropin or PreProMelittin", "format": "cell-based, Mouse Mammary Tumour Virus", "conditions": "two different MMTV LTRs; gene under control of an MLV promoter; FIGS. 13A-13B", "source_text": "A similar experiment to that of FIGS. 11 and 12 can be seen in FIGS. 13A–13B whereby two different MMTV LTR's controlling the expression of a luciferase reporter gene (Wintersberger et al., Proc. Natl. Acad. Sci. USA, 92:2745–2749) were separately supertransfected into cells carrying either PreProCecropin or PreProMelittin under control of an MLV promoter."}}}
{"molecule": "CC[C@H](C)[C@H](NC(=O)CN)C(=O)NCC(=O)N[C@@H](C)C(=O)N[C@H](C(=O)N[C@@H](CC(C)C)C(=O)N[C@@H](CCCCN)C(=O)N[C@H](C(=O)N[C@@H](CC(C)C)C(=O)N[C@H](C(=O)N[C@H](C(=O)NCC(=O)N[C@@H](CC(C)C)C(=O)N1CCC[C@H]1C(=O)N[C@@H](C)C(=O)N[C@@H](CC(C)C)C(=O)N[C@H](C(=O)N[C@@H](CO)C(=O)N[C@@H](Cc1c[nH]c2ccccc12)C(=O)N[C@H](C(=O)N[C@@H](CCCCN)C(=O)N[C@@H](CCCNC(=N)N)C(=O)N[C@@H](CCCCN)C(=O)N[C@@H](CCCNC(=N)N)C(=O)N[C@@H](CCC(N)=O)C(=O)N[C@@H](CCC(N)=O)C(N)=O)[C@@H](C)CC)[C@@H](C)CC)[C@@H](C)O)[C@@H](C)O)C(C)C)C(C)C", "note": "[melittin]", "values": [{"measurement": "anti-HIV activity", "setting": "HIV", "result": "anti-HIV activity"}, {"measurement": "anti-cancer activity", "setting": "cancer", "result": "selective anti-cancer"}]}
{"molecule": "Cecropin A", "values": [{"measurement": "antibacterial activity", "setting": "bacteria", "result": "specific antibacterial activity"}, {"measurement": "ill effects for mammalian cells", "setting": "mammalian cells", "result": "without any apparent ill effects"}]}
{"molecule": "Cecropin B", "values": [{"measurement": "antibacterial activity", "setting": "bacteria", "result": "specific antibacterial activity"}, {"measurement": "ill effects for mammalian cells", "setting": "mammalian cells", "result": "without any apparent ill effects"}, {"measurement": "anticancer activity against tumour cell lines", "setting": "[1]", "result": "anticancer activity"}]}
{"molecule": "cecropin", "values": [{"measurement": "rate of tumour growth in mice", "setting": "[2]", "result": "reduced rate of tumour growth"}, {"measurement": "luciferase expression from HIV-luc", "setting": "HIV LTR", "result": "little luciferase expression"}, {"measurement": "effect on expression from MMTV LTR luciferase reporter", "setting": "MMTV LTR", "result": "downregulatory effect"}]}
